Patent US7470549B2, “Measurement method using biosensor” (FUJIFILM Corporation, priority 2004, dated 2008)

Legend:
[1] = target: T1, Trypsin (Bos taurus, UniProt P00760); experiment: SPR measurement of substance binding to trypsin immobilized on hydrogel-coated chip (Examples 1-4); settings: for Bond of substance interacting with trypsin (RU): 0.002 mM solution, left at rest 10 minutes, change of resonance signal, hydrogel-coated chip; for Binding to trypsin (in words): comment on Table 1
T1 sequence (P00760 24-246): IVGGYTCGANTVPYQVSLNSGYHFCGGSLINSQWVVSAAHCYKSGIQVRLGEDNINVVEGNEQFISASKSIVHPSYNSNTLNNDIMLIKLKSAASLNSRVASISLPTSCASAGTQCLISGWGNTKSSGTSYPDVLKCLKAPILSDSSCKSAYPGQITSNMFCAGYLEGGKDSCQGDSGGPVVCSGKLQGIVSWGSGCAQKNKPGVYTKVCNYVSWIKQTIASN
Experimental: Trypsin (manufactured by Worthington) was immobilized on a measurement chip. Interaction measurement was carried out using a surface plasmon resonance measurement device.
(§1) A mixed solution consisting of 1-ethyl-2,3-dimethylaminopropylcarbodiimide (400 mM) and N-hydroxysuccinimide (100 mM) was added to a hydrogel-coated chip, followed by leaving at rest for 20 minute. Thereafter, the resultant product was washed with an HBS-N buffer containing 10 mM CaCl2. Subsequently, trypsin (1 mg/ml, 10 mM CaCl2-containing HBS-N buffer) was added thereto, followed by leaving at rest for 30 minutes. Thereafter, the resultant product was washed with a 10 mM CaCl2-containing HBS-N buffer. The used HBS-N buffer is composed of 0.01 mol/l (pH 7.4) HEPES (N-2-hydroxyethylpiperazine-N′-2-ethanesulfonic acid) and 0.15 mol/l NaCl.
Thereafter, an ethanolamine/HCl solution (1M, pH 8.5) was added to the measurement chip, followed by washing with an HBS-N buffer (manufactured by Biacore), so as to block COOH groups that remained without reacting with trypsin.
(§2) By the aforementioned operations, trypsin was immobilized on the surface of the measurement chip via a covalent bond. The amount by which resonance signals (RU value) obtained before the addition of trypsin and after washing it had changed was defined as the immobilized amount of trypsin (RU value).
(§3) A measurement chip was washed with an HBS-N buffer. Thereafter, the measurement chip was equipped into a surface plasmon resonance measurement device, and a leupeptin solution (0.002 mM, HBS-N buffer) was added thereto, followed by leaving at rest for 10 minutes. The amount by which resonance signals (RU value) had changed was defined as the amount of leupeptin (manufactured by ICN) binding to trypsin.
A measurement chip was washed with an HBS-N buffer.
as §3, with “chymostatin” for “leupeptin”

[2] = target: T1, Trypsin; experiment: Enzyme activity of immobilized trypsin with Bz-Arg-MCA, fluorescence of decomposed product, same hydrogel chip (Examples 1-4); assay type: biochemical; settings: for Measurement results of fluorescence intensity (120 minutes): 0.002 mM substance, 0.1 mM Bz-Arg-MCA, excitation 380 nm, emission 460 nm, no substance: 580; for Inhibitory action on the enzyme activity of trypsin (in words): comment on Table 1
Experimental: (§4) Using the chip after the measurement of the amount of leupeptin binding to trypsin described in (2) above, the enzyme activity of trypsin was measured. Specifically, a substrate specific to trypsin (benzoyl-L-arginine-4-methylcoumarin-7-amide (hereinafter referred to as Bz-Arg-MCA); Peptide Institute, Inc.) was allowed to react with trypsin, and fluorescence in the decomposed product was measured.
The HBS-N buffer contained in the measurement chip was removed, and a leupeptin solution (0.002 mM, HBS-N buffer) and 0.1 mM Bz-Arg-MCA were added thereto. The reaction was then carried out for 10, 30, 60, and 120 minutes.
Fluorescence measurement was carried out regarding the reaction for each of the aforementioned reaction times, using the BMGLabTechnologies FLUOstar measurement device (excitation: 380 nm; and emission: 460 nm).
(§5) Specifically, a substrate specific to trypsin (benzoyl-L-arginine-4-methylcoumarin-7-amide (hereinafter referred to as Bz-Arg-MCA); Peptide Institute, Inc.) was allowed to react with trypsin, and fluorescence in the decomposed product was measured.
The reaction was then carried out for 10, 30, 60, and 120 minutes.
Fluorescence measurement was carried out regarding the reaction for each of the aforementioned reaction times, using the BMGLabTechnologies FLUstar measurement device (excitation: […]; and emission: 460 nm).
as §4, with “chymostatin” for “leupeptin”, “trypsin” for “trypsin described”
The HBS-N buffer contained in the measurement chip was removed, and a chymostatin solution (0.002 mM, HBS-N buffer) and 0.1 mM Bz-Arg-MCA were added thereto. The reaction was then carried out for 10, 30, 60, and 120 minutes.
(§6) Fluorescence measurement was carried out regarding the reaction for each of the aforementioned reaction times, using the BMGLabTechnologies FLUstar measurement device (excitation: 380 nm; and emission: 460 nm).

[3] = target: T1, Trypsin; experiment: Selection of compounds by affinity: SPR binding to trypsin-immobilized PMMA/PEO sensor chip (Example 6); settings: for Binding amount (RU): left at rest 10 minutes, change of resonance signal, PMMA sensor chip
Experimental: Using the SPR system used for screening shown in FIG. 1, immobilization of a ligand, the binding measurement of compounds, and selection of compounds were carried out.
Thereafter, it was placed in a spin coater (MODEL ASS-303; manufactured by ABLE) and then rotated at 1,000 rpm. 50 μl of a methyl ethyl ketone solution containing polymethyl methacrylate (2 mg/ml) was added dropwise to the center of the cover glass coated with gold via evaporation, and 2 minutes later, the rotation was terminated. The thickness of the membrane was measured by the ellipsometry method (In-Situ Ellipsometer MAUS-101; manufactured by Five Lab). […] This sample is called a PMMA surface chip. This PMMA surface chip was immersed in an NaOH aqueous solution (1 N) at 40° C. for 16 hours, followed by washing with water 3 times. This sample is called a PMMA/COOH surface chip. This PMMA/COOH surface chip was immersed in 2 ml of a mixed solution of 1-ethyl-2,3-dimethylaminopropylcarbodiimide (400 mM) and N-hydroxysuccinimide (100 mM) for 60 minutes. Thereafter, it was immersed in 2 ml of an α-amino-polyethyleneoxy-ω-carboxylic acid (mean molecular weight: 5,000) aqueous solution (10 mM) for 16 hours. The resultant product was finally washed with water 5 times. The thus obtained sensor chip was used in the following operation.
as §1, with “solution” for “solution consisting”, “the sensor chip produced in (1) above,” for “a hydrogel-coated chip,”, “buffer.” for “buffer. The used HBS-N buffer is composed of 0.01 mol/l (pH 7.4) HEPES (N-2-hydroxyethylpiperazine-N′-2-ethanesulfonic acid) and 0.15 mol/l NaCl.”
Thereafter, an ethanolamine/HCl solution (1M, pH 8.5) was added to the measurement chip, followed by washing with an HBS-N buffer (manufactured by Biacore).
The sensor chip on which trypsin had been immobilized was washed with an HBS-N buffer.

[4] = target: T1, Trypsin; experiment: SPR binding to trypsin on PMMA measurement chip, Biacore 3000 (Example 5); settings: leupeptin 0.002 mM, 10 minutes
Experimental: Trypsin (manufactured by Worthington) was immobilized on a PMMA measurement chip. Interaction measurement was carried out using a surface plasmon resonance measurement device (Biacore 3000).
A PMMA measurement chip was equipped into Biacore 3000. A mixed solution of 1-ethyl-2,3-dimethylaminopropylcarbodiimide (400 mM) and N-hydroxysulfosuccinimide (100 mM) was added thereto, followed by reaction for 7 minutes. Thereafter, trypsin (0.05 mg/ml, 10 mM CaCl2-containing HBS-N buffer) was added thereto, followed by reaction for 7 minutes.
Thereafter, an ethanolamine/HCl solution (1M, pH 8.5) was added to the measurement chip, followed by reaction for 7 minutes, so as to block COOH groups that remained without reacting with trypsin.
as §2, with “of the PMMA measurement chip” for “of the measurement chip”
A leupeptin solution (0.002 mM, HBS-N buffer) was added to a measurement chip, followed by reaction for 10 minutes. The amount by which resonance signals (RU value) had changed was defined as the amount of leupeptin (manufactured by ICN) binding to trypsin.

[5] = target: T1, Trypsin; experiment: Enzyme activity of trypsin on PMMA chip with Bz-Arg-MCA, fluorescence (Example 5); assay type: biochemical; settings: leupeptin 0.002 mM, 0.1 mM Bz-Arg-MCA
Experimental: as §4, with “Using the PMMA chip after” for “Using the chip after”, “to trypsin in (2)” for “to trypsin described in (2)”
The inside of the PMMA measurement chip was washed with an HBS-N buffer. Thereafter, a leupeptin solution (0.002 mM, HBS-N buffer) and 0.1 mM Bz-Arg-MCA were added thereto. The reaction was then carried out for 10, 30, 60, and 120 minutes.
as §6

[6] = target: T1, Trypsin; experiment: Selection of compounds due to biological activity: trypsin enzyme activity with Bz-Arg-MCA, fluorescence (Example 7); assay type: biochemical
Experimental: as §5
Thereafter, the reaction was then carried out for 10, 30, 60, and 120 minutes.
as §6

Row | SMILES | Bond of substance interacting with trypsin (RU) [1] | Binding to trypsin (in words) [1] | Measurement results of fluorescence intensity (120 minutes) [2] | Inhibitory action on the enzyme activity of trypsin (in words) [2] | Binding amount (RU) [3] | Binding amount of substance interacting with trypsin, compared with CM5 cup [4] | Fluorescence intensity, compared with CM5 cup [5] | Binding observed, selection of compounds (in words) ([3]; Example 6 (3)) | Selection due to binding amount ([3]; symbols ◯ / X, key not given) | Measurement value of fluorescence intensity ([6]; 4 μM compound solution mixed 1:1 with 0.2 mM Bz-Arg-MCA, reaction time of the value not given, no compound: 594) | Inhibition of the enzyme activity of trypsin, selection of compounds (in words) ([6]; Example 7 (3)) | Selection due to enzyme activity ([6]; symbols ◯ / X, key not given)
1 | CC(C)C[C@H](NC(=O)[C@@H](NC(=O)N[C@@H](Cc1ccccc1)C(=O)O)[C@@H]1CCN=C(N)N1)C(=O)N[C@H](C=O)Cc1ccccc1 [Chymostatin] | 0 RU | did not bind to trypsin | 576 | no inhibitory action on the enzyme activity of trypsin was observed | 0 RU | – | – | – | – | – | – | –
2 | CC(=O)N[C@@H](CC(C)C)C(=O)N[C@@H](CC(C)C)C(=O)N[C@H](C=O)CCCNC(=N)N [Leupeptin] | 22 RU | bound to the enzyme activity site of trypsin | 2 | inhibiting the enzyme activity | 23 RU | equivalent to the values obtained with CM5 cup | equivalent to the values obtained with CM5 cup | the binding of which were observed, were selected | ◯ | 3 | inhibited the enzyme activity of trypsin | ◯
